The target of this experiment is T1, recombinant HIV reverse transcriptase (HIV RTR) (Human immunodeficiency virus type 1 group M subtype B, UniProt P04585).
T1 construct: recombinant HIV reverse transcriptase (HIV RTR)
Description: Reverse Transcriptase Assay. The experiment is classed as biochemical. As to the method:
The assay measures the incorporation of tritiated deoxyguanosine monophosphate by recombinant HIV reverse transcriptase (HIV RTR) (or other RT) into acid-precipitable cDNA at the Km values of dGTP and poly r(C).oligo d(G)12-18.
Thirty uL of a reaction mixture containing equal volumes of: 500 mM Tris.HCl (pH 8.2), 300 mM MgCl2, 1200 mM KCl, 10 mM DTT, 400 μg/mL poly r(c).oligo d(G) [prepared by dissolving 1.5 mg (25 U) poly r(C).oligo d(G) in 1.5 ml sterile distilled H2 O and diluting to 400 μg/ml], 0.1 μuCi/μl [^3 H] dGTP, 160 μM dGTP, was added to 10 μl sterile distilled H2 O, 2.5 μl of potential inhibitor. Ten μL of 3.2 nM purified HIV RTR in tubes. The mixture was incubated at 37° C. for 45 minutes.
After incubation was complete, the tubes were cooled in ice for 5 minutes. Ice-cold 13% TCA containing 10 mM NaPPi (200 μl) was added and the mixture incubated on ice for 30 minutes. The precipitated cDNA was removed by filtration using presoaked glass filters [TCA, NaPPi ]. The precipitate was then washed with 1N HCl, 10 mM NaPPi. The filter discs were then counted in a scintillation counter.
Under these conditions [dGTP] and poly r(C).oligo d(G)12-18 each are approximately equal to the appropriate Km value. Approximately 5-6,000 cpm of [^3 H] GMP are incorporated into acid-precipitable material. The RT reaction is concentration-and time-dependent.

Broadly, the IC50 is the midpoint of a concentration-inhibition curve. With `Cc1[nH]c(=O)c(NCc2nc3c(C)ccc(C)c3o2)cc1C(C)O` (stereo not shown) [compound (I), 3-[(4,7-Dimethylbenzoxazol-2-yl)-methylamino]-5-(1-hydroxyethyl)-6-methyl-2(1H)-pyridinone], the half-maximal inhibitory concentration (IC50) is about 430 nM.

The values are drawn from patent US5215900A, “Microbial transformation of a substituted pyridinone using streptomyces sp. MA6804” (Merck & Co., Inc., priority 1991, dated 1993).
